Source: US9403798B2, “Triazinone compound and T-type calcium channel inhibitor” (NISSAN CHEMICAL INDUSTRIES, LTD., priority 2012, dated 2016)

These compounds were tested against T1, Human T-type calcium channel (Cav 3.2) (Homo sapiens, UniProt O95180) (assay: Calcium Influx Inhibition Assay). Settings: Human T-type calcium channel (Cav 3.2) expressing HEK293 cells, FLIPR Calcium 4 fluorescence.
T1 construct: Edward Perez-Reyes, University of Virginia, USA; host or cells: HEK293
T1 sequence (O95180 whole entry): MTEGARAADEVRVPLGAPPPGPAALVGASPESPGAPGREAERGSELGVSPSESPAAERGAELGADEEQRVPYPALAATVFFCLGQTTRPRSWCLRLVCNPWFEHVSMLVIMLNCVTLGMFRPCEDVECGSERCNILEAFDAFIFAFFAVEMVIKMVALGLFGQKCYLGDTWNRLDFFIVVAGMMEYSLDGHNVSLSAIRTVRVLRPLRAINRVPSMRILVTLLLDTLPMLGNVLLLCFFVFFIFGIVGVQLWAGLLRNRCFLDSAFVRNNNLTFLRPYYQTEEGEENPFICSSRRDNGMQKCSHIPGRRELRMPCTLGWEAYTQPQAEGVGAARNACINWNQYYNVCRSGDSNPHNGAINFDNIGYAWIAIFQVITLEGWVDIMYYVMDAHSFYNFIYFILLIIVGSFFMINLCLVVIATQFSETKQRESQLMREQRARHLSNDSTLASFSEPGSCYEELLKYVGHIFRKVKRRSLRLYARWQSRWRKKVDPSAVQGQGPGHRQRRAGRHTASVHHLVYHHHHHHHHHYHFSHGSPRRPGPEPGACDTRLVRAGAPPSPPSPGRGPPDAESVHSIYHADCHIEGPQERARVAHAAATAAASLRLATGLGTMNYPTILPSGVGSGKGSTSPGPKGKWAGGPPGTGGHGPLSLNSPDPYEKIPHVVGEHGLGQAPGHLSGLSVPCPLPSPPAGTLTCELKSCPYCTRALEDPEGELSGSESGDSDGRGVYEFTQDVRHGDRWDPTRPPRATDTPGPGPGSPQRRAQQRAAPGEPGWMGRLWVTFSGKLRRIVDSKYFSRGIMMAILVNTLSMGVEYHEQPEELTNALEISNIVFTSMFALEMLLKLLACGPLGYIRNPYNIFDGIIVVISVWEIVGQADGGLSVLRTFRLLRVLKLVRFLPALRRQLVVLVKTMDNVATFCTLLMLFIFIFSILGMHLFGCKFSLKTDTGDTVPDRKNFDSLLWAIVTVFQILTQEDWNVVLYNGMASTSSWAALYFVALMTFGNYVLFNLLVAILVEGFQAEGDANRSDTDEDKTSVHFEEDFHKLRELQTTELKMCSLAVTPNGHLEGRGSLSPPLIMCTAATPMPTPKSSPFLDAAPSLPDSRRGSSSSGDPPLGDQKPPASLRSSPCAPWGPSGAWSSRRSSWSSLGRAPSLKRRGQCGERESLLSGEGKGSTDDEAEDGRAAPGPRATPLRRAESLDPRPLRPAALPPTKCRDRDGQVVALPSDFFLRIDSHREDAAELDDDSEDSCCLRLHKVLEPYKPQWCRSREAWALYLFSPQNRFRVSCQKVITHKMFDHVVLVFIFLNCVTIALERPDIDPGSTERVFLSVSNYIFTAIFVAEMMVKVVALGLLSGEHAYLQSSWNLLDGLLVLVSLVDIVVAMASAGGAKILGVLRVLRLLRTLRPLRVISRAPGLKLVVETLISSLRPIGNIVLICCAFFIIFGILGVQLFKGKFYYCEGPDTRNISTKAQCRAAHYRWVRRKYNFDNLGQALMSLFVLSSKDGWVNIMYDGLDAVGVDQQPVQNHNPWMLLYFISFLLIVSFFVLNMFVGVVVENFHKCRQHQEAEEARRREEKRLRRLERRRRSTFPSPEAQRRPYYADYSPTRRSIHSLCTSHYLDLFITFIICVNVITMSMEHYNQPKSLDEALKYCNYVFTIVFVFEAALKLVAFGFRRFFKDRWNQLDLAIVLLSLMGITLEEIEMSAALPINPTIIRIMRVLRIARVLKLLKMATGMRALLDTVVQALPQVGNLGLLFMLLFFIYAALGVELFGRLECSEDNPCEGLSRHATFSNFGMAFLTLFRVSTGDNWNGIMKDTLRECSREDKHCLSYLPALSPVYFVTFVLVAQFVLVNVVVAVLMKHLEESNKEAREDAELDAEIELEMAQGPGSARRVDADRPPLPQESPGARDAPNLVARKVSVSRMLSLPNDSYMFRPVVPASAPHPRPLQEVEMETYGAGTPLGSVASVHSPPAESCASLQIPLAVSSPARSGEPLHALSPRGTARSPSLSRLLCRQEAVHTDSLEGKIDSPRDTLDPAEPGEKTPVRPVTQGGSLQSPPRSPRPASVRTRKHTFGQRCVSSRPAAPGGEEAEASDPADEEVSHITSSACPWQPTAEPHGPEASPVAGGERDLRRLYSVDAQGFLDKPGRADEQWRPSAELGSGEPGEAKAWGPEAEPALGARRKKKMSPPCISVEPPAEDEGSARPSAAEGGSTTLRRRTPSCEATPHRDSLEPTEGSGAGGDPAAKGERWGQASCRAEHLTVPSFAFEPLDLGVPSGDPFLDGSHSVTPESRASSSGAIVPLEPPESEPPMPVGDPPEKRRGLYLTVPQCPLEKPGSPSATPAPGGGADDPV
Assay type: cell-based
Procedure: 1. Calcium Influx Inhibition Assay
Human T-type calcium channel (Cav 3.2) expressing HEK293 cells were obtained from Prof. Edward Perez-Reyes, University of Virginia, USA. The calcium-sensitive fluorescent dye used was FLIPR Calcium 4 Assay Kit (Molecular Devices). To a black 96-well plate with a clear bottom coated with type I collagen, the human T-type calcium channel (Cav 3.2) expressing HEK293 cells were seeded and cultured overnight, and the culture medium was removed. A solution of the calcium-sensitive fluorescent dye was added, and the plate was incubated at 37° C. in an atmosphere of 5% carbon dioxide for 30 minutes. To the plate, a diluted solution of a compound was added, and the whole was further incubated at 37° C. in an atmosphere of 5% carbon dioxide for 30 minutes. While fluorescence was continuously analyzed from the bottom with a FlexStation 3 (Molecular Devices), a calcium solution was added. […] From the rise in the fluorescence from the base line, the inhibition percentage was calculated. The logarithms of compound concentrations were plotted with respect to the inhibition activities to give an IC50 value.
`O=c1nc(N2CC=C(c3ccc(F)cc3)C(O)C2)ncn1Cc1cc2c(s1)CCCC2` (stereo not drawn) [compound 201] gave an IC50 of 0.0057 µM.
`Cc1csc(C2=CCN(c3ncn(Cc4ccc(C(F)(F)F)s4)c(=O)n3)C[C@@H]2O)c1` [compound 327] showed an IC50 of 0.004 µM.
With `NC1CN(c2ncn(Cc3ccc(C(F)(F)F)s3)c(=O)n2)CC=C1c1ccc(F)cc1` (stereo not drawn) [compound 321] the IC50 was 0.0036 µM.
`Cc1nc(C2=CCN(c3ncn(Cc4ccc(C(C)(C)C)s4)c(=O)n3)C[C@@H]2O)ccc1F` [compound 415] showed an IC50 of 0.016 µM.
Work on `O=c1nc(N2CCN(c3ccc(F)cc3)CC2)ncn1Cc1ccc(OC(F)(F)F)cc1` [compound 6] yielded an IC50 of 0.019 µM.
`Cc1csc(C2=CCN(c3nc(C)n(Cc4ccc(C(F)(F)F)s4)c(=O)n3)C[C@@H]2O)c1` [compound 362] showed an IC50 of 0.0015 µM.
In the case of `Cc1nc(N2CC=C(c3ccc(F)cc3)[C@@H](O)C2)nc(=O)n1Cc1ccc(C(F)(F)F)s1` [compound 342], the IC50 is reported as 0.00094 µM.
Compound `O=C1CCc2cc(C3=CCN(c4ncn(Cc5ccc(C(F)(F)F)s5)c(=O)n4)CC3)ccc21` [compound 269] has an IC50 of 0.075 µM.
With `CN(C)Cc1nc(N2CCN(c3ccc(F)cc3)CC2)nc(=O)n1Cc1ccc(C(F)(F)F)s1` [compound 462] the IC50 was 0.61 µM.
`O=c1nc(N2CCC(c3ccc(F)cc3)CC2)ncn1Cc1ccc(Cl)cc1` [compound 114] was tested, and the IC50 was 0.13 µM.
In the case of `O=c1nc(N2CC=C(c3ccccc3)CC2)ncn1Cc1ccc(C(F)(F)F)s1` [compound 70], the IC50 is reported as 0.019 µM.
With `O=c1nc(N2CCN(c3ccc(F)cc3)CC2)ncn1Cc1ccc(Cl)cc1` [compound 1] the IC50 was 0.17 µM.
`O=c1nc(N2CC=C(c3ccc4ocnc4c3)CC2)ncn1Cc1ccc(C(F)(F)F)s1` [compound 295] gave an IC50 of 0.18 µM.
`O=c1nc(N2CC=C(c3ccc(F)cc3)CC2)ncn1Cc1ccc(C2CC2)s1` [compound 479] was tested, and the IC50 was 0.066 µM.
Compound `O=c1cc(C(F)(F)F)ccn1Cn1cnc(N2CCN(c3ccc(F)cc3)CC2)nc1=O` [compound 16] has an IC50 of 0.58 µM.
`CCCCCCOc1ccc(Cn2cnc(N3CCN(c4ccc(F)cc4)CC3)nc2=O)cc1` [compound 140] gave an IC50 of 0.055 µM.
`Cc1cccc(C2=CCN(c3ncn(Cc4cc5c(s4)CCCC5)c(=O)n3)C[C@@H]2O)n1` [compound 430] gave an IC50 of 0.16 µM.
In the case of `Cc1nc(N2CCC(n3cc(Br)cn3)CC2)nc(=O)n1Cc1ccc(C(F)(F)F)s1` [compound 489], the IC50 is reported as 0.51 µM.
For `O=c1nc(N2CC=C(c3ccc(F)cc3)C(F)C2)ncn1Cc1ccc(Cl)cc1` (stereo not drawn) [compound 107], the IC50 was 0.076 µM.
Compound `O=c1nc(N2C=CC(c3ccc(F)cc3)=CC2)ncn1Cc1ccc(C(F)(F)F)s1` [compound 484] has an IC50 of 0.24 µM.
`CC(F)(F)c1ccc(Cn2cnc(N3CC=C(c4ccc(F)cc4)[C@@H](O)C3)nc2=O)s1` [compound 207] was tested, and the IC50 was 0.0075 µM.
`Cc1nc(N2CC=C(c3ccc(F)cc3)[C@@H](O)C2)nc(=O)n1Cc1ccc(C(F)(F)C(F)(F)F)s1` [compound 454] was tested, and the IC50 was 0.0019 µM.
`O=c1nc(N2CC=C(c3ccc(F)cc3)C(O)C2)ncn1Cc1ccc2c(c1)CC(C(F)(F)F)O2` (stereo not drawn) [compound 195] showed an IC50 of 0.0036 µM.
Compound `Cc1nc(N2CCN(c3ccccc3)CC(F)(F)C2)nc(=O)n1Cc1ccc(C(F)(F)F)s1` [compound 377] has an IC50 of 0.41 µM.
With `O=c1nc(N[C@@H]2CCN(c3ccc(F)cc3)C2)ncn1Cc1ccc(Cl)cc1` [compound 92] the IC50 was 0.047 µM.
`O=c1nc(N2CC=C(c3ccc(F)cc3)CC2)ncn1Cc1ccc2oc(C(F)(F)F)cc2c1` [compound 184] gave an IC50 of 0.043 µM.
`COc1nc(N2CCN(c3ccc(F)cc3)CC2)nc(=O)n1Cc1ccc(Cl)cc1` [compound 31] was tested, and the IC50 was 0.23 µM.
In the case of `O=c1nc(N2CCN(c3ccc(F)cc3)CC2)ncn1Cc1ccc(C(F)(F)F)cc1` [compound 3], the IC50 is reported as 0.1 µM.
`Cc1cc(C2=CCN(c3ncn(Cc4ccc(C(F)(F)F)s4)c(=O)n3)CC2)sn1` [compound 275] was tested, and the IC50 was 0.03 µM.
For `O=c1nc(N2CC=C(c3ccc(F)cc3)CC2)ncn1Cc1ccc2c(c1)CCCO2` [compound 178], the IC50 was 0.06 µM.
Work on `Cc1nc(N2CC=C(c3ccc(F)cc3)[C@@H](O)C2)nc(=O)n1Cc1cnc(C(F)(F)F)s1` [compound 219] yielded an IC50 of 0.0055 µM.
Compound `O=c1nc(N2CC=C(c3ccc(F)cc3)C(O)C2)ncn1Cc1ccc(C(F)(F)F)s1` (stereo not drawn) [compound 190] has an IC50 of 0.0033 µM.
Compound `Cc1ccc(N2CCN(c3nc(C)n(Cc4ccc(C(F)(F)F)s4)c(=O)n3)CC2)cc1` [compound 363] has an IC50 of 0.0087 µM.
`O=c1nc(N[C@@H]2CCCN(c3ccc(F)cc3)C2)ncn1Cc1ccc(Cl)cc1` [compound 82] gave an IC50 of 0.12 µM.
For `O=c1nc(N2CC=C(c3ccc(F)cc3)CC2)ncn1Cc1ccc2c(c1)OCO2` [compound 182], the IC50 was 0.1 µM.
Compound `O=c1nc(N2CC=C(c3ccc(F)c(O)c3)CC2)ncn1Cc1ccc(C(F)(F)F)s1` [compound 304] has an IC50 of 0.064 µM.
Compound `O=c1nc(N2CC=C(c3cn4c(n3)CCC4)CC2)ncn1Cc1ccc(C(F)(F)F)s1` [compound 283] has an IC50 of 0.51 µM.
With `Cc1nc(N2CCN(c3ccc(F)cc3)CC2)nc(=O)n1CC12CC3CC(CC(C3)C1)C2` [compound 461] the IC50 was 0.4 µM.
With `O=c1nc(N2CCN(c3ccc(F)cc3)CC2)nc(CO)n1Cc1ccc(C(F)(F)F)s1` [458b] the IC50 was 0.053 µM.
Work on `O=c1nc(N2CC=C(c3ccc(F)cc3)C(O)C2)ncn1Cn1ccc(C(F)(F)C(F)(F)F)n1` (stereo not drawn) [compound 194] yielded an IC50 of 0.0099 µM.
In the case of `N#Cc1ccc(N2CCN(c3ncn(Cn4ccc(C(F)(F)F)n4)c(=O)n3)CC2)cc1` [compound 49], the IC50 is reported as 0.86 µM.
`C[C@@H]1CN(c2ccc(F)cc2)CCN1c1ncn(Cc2ccc(Cl)cc2)c(=O)n1` [compound 96] gave an IC50 of 0.11 µM.
Work on `O=c1nc(N2CC=C(c3ccc(F)c(Cl)c3)[C@@H](O)C2)ncn1Cc1cc2c(s1)CCCC2` [compound 428] yielded an IC50 of 0.0055 µM.
Compound `O=c1nc(N2CCN(c3ccc(F)cc3)CC2)ncn1Cc1cc2cc(Cl)ccc2o1` [compound 18] has an IC50 of 0.05 µM.
In the case of `Cc1cc(C2=CCN(c3nc(C)n(Cc4cnc(C(F)(F)F)s4)c(=O)n3)C[C@@H]2O)cs1` [compound 493], the IC50 is reported as 0.0037 µM.
`Cc1nc(N2CC=C(c3ccc(F)cc3)C(CO)C2)nc(=O)n1Cc1ccc(C(F)(F)F)s1` (stereo not drawn) [compound 379] gave an IC50 of 0.054 µM.
`Cc1cc(N2CCN(c3ncn(Cc4ccc(C(F)(F)F)o4)c(=O)n3)CC2)cs1` [compound 436] gave an IC50 of 0.33 µM.
With `O=c1nc(N2CCN(c3ccc(Cl)cc3F)CC2)ncn1Cn1ccc(C(F)(F)F)n1` [compound 60] the IC50 was 0.42 µM.
In the case of `Cc1nc(N2CC3CCC(C2)N3c2ccc(F)cc2)nc(=O)n1Cc1ccc(C(F)(F)F)s1` [compound 380], the IC50 is reported as 0.31 µM.
Compound `O=c1nc(N2CCN(c3cc(F)c(F)c(F)c3)CC2)ncn1Cn1ccc(C(F)(F)F)n1` [compound 58] has an IC50 of 0.17 µM.
`COc1nc(C2=CCN(c3nc(C)n(Cc4ccc(Br)s4)c(=O)n3)C[C@@H]2O)ccc1Cl` [compound 395] showed an IC50 of 0.0017 µM.
Compound `O=c1nc(N2CCN(c3ccc(F)cc3)CC2)ncn1Cc1csc(C(F)(F)F)n1` [compound 29] has an IC50 of 0.32 µM.
In the case of `O=c1nc(Nc2ccn(-c3ccc(F)cc3)c2)ncn1Cc1ccc(Cl)cc1` [compound 131], the IC50 is reported as 0.2 µM.
`O=c1nc(NCC2CC2c2ccc(F)cc2)ncn1Cc1ccc(C(F)(F)F)s1` (single isomer, unassigned) [compound 310] was tested, and the IC50 was 0.17 µM.
Work on `Cc1cc(N2CCN(c3nc(C)n(Cc4ccc(C(F)(F)F)s4)c(=O)n3)CC2)cs1` [compound 357] yielded an IC50 of 0.013 µM.
`O=c1nc(N2CC=C(c3cc4ccccc4o3)CC2)ncn1Cc1ccc(C(F)(F)F)s1` [compound 260] gave an IC50 of 0.14 µM.
Work on `Cc1ccc(C2=CCN(c3nc(C)n(Cc4ccc(C(F)(F)F)s4)c(=O)n3)C[C@@H]2O)cc1F` [compound 349] yielded an IC50 of 0.0011 µM.
`Cc1nc(N2CC=C(c3ccc(F)cc3)[C@@H](N)C2)nc(=O)n1Cc1ccc(C(F)(F)F)s1` [compound 348] gave an IC50 of 0.0045 µM.
`O=c1nc(N2CC=C(c3ccc(F)c(Cl)c3)[C@@H](O)C2)ncn1Cc1ccc(C(F)(F)F)s1` [compound 326] was tested, and the IC50 was 0.0019 µM.
Work on `Cc1nc(N2CCN(CC(=O)C34CC5CC(CC(C5)C3)C4)CC2)nc(=O)n1Cc1ccc(C(F)(F)F)s1` [compound 487] yielded an IC50 of 0.5 µM.
In the case of `O=c1nc(NC2CCC(O)(c3ccc(F)cc3)C2O)ncn1Cc1ccc(Cl)cc1` (stereo not drawn) [compound 465], the IC50 is reported as 0.28 µM.
Compound `Cc1cc(Cn2cnc(N3CCN(c4ccc(F)cc4)CC3)nc2=O)sc1Br` [compound 153] has an IC50 of 0.051 µM.
Compound `O=c1nc(N2CC=C(c3cnn(CC(F)(F)F)c3)CC2)ncn1Cc1ccc(C(F)(F)F)s1` [compound 259] has an IC50 of 0.6 µM.
For `O=c1nc(N2CCN(c3ccc(F)cc3)CC2)ncn1Cc1cccc(C(F)(F)F)c1` [compound 8], the IC50 was 0.14 µM.
Compound `Cc1ccc(C2=CCN(c3nc(C)n(Cc4ccc(Br)s4)c(=O)n3)C[C@@H]2O)cc1F` [compound 392] has an IC50 of 0.0013 µM.
Compound `Cc1nc(N2CC=C(c3ccc(F)cc3)[C@@H](O)C2)nc(=O)n1C(C)c1ccc(C(F)(F)F)s1` (stereo partly drawn) [compound 453] has an IC50 of 0.024 µM.
`Cc1cc(F)ccc1C1=CCN(c2nc(C)n(Cc3ccc(C(C)(C)C)s3)c(=O)n2)C[C@@H]1O` [compound 423] was tested, and the IC50 was 0.04 µM.
Compound `O=c1nc(N2CC=C(c3ccc(F)cc3)C(O)C2)ncn1Cc1ccc(C2CCCO2)s1` (stereo not drawn) [compound 196] has an IC50 of 0.02 µM.
Work on `N#Cc1cc(C2=CCN(c3ncn(Cc4ccc(C(F)(F)F)s4)c(=O)n3)CC2)ccc1F` [compound 278] yielded an IC50 of 0.045 µM.
Compound `CC(C)(C)c1ccc(Cn2cnc(N3CC=C(c4ccc(F)cc4)CC3)nc2=O)cc1` [compound 183] has an IC50 of 0.041 µM.
`COc1nc(C2=CCN(c3ncn(Cc4ccc(C(C)(C)C)s4)c(=O)n3)C[C@@H]2O)ccc1Cl` [compound 413] showed an IC50 of 0.0069 µM.
Compound `COc1cncc(C2=CCN(c3ncn(Cc4ccc(C(F)(F)F)s4)c(=O)n3)CC2)n1` [compound 272] has an IC50 of 0.35 µM.
